Test [1] concerns the target hOX1R (orexin-1 receptor) (Homo sapiens, UniProt O43613). As to the kind of experiment: FLIPR Ca2+ Flux Assay, hOX1R. It counts as cell-based. To be noted: CHO cells expressing the receptor; agonist Ala-6,12 human orexin-A. (Calcium assays in cells follow changes in intracellular calcium, usually with a dye or a luminescent sensor.)
The target of test [2] is human orexin-2 receptor (Homo sapiens (Human), UniProt O43614). As to the kind of experiment: FLIPR Ca2+ Flux Assay, hOX2R. Conditions: CHO cells expressing the receptor; agonist Ala-6,12 human orexin-A. It counts as cell-based. As to the method:
The utility of the compounds in accordance with the present invention as orexin receptor OX1R and/or OX2R antagonists may be readily determined without undue experimentation by methodology well known in the art, including the “FLIPR Ca^2+ Flux Assay” (Okumura et al., Biochem. Biophys. Res. Comm. 280:976-981, 2001). In a typical experiment the OX1 and OX2 receptor antagonistic activity of the compounds of the present invention was determined in accordance with the following experimental method. For intracellular calcium measurements, Chinese hamster ovary (CHO) cells expressing the rat orexin-1 receptor or the human orexin-2 receptor, are grown in Iscove's modified DMEM containing 2 mM L-glutamine, […], 1% hypoxanthine-thymidine supplement, 100 U/ml penicillin, 100 μg/ml streptomycin and 10% heat-inactivated fetal calf serum (FCS). The cells are seeded at 20,000 cells/well into Becton-Dickinson black 384-well clear bottom sterile plates coated with poly-D-lysine. All reagents were from GIBCO-Invitrogen Corp. The seeded plates are incubated overnight at 37° C. and 5% CO2. Ala-6,12 human orexin-A as the agonist is prepared as a 1 mM stock solution in 1% bovine serum albumin (BSA) and diluted in assay buffer (HBSS containing 20 mM HEPES, 0.1% BSA and 2.5 mM probenecid, pH7.4) for use in the assay at a final concentration of 70 pM. Test compounds are prepared as 10 mM stock solution in DMSO, then diluted in 384-well plates, first in DMSO, then assay buffer. On the day of the assay, cells are washed 3 times with 100 μl assay buffer and then incubated for 60 min (37° C., 5% CO2) in 60 μl assay buffer containing 1 μM Fluo-4AM ester, 0.02% pluronic acid, and 1% BSA. The dye loading solution is then aspirated and cells are washed 3 times with 100 μl assay buffer. 30 μl of that same buffer is left in each well. Within the Fluorescent Imaging Plate Reader (FLIPR, Molecular Devices), test compounds are added to the plate in a volume of 25 μl, incubated for 5 min and finally 25 μl of agonist is added. Fluorescence is measured for each well at 1 second intervals for 5 minutes and the height of each fluorescence peak is compared to the height of the fluorescence peak induced by […] Ala-6,12 orexin-A with buffer in place of antagonist. For each antagonist, IC50 value (the concentration of compound needed to inhibit 50% of the agonist response) is determined. Alternatively, compound potency can be assessed by a radioligand binding assay (described in Bergman et. al. Bioorg. Med. Chem. Lett. 2008, 18, 1425-1430) in which the inhibition constant (Ki) is determined in membranes prepared from CHO cells expressing either the OX1 or OX2 receptor. The intrinsic orexin receptor antagonist activity of a compound which may be used in the present invention may be determined by these assays.

Molecules are shown by their SMILES. A value given as a limit tells only on which side of the number the result lay.

human orexin-2 receptor, sequence (O43614 whole entry): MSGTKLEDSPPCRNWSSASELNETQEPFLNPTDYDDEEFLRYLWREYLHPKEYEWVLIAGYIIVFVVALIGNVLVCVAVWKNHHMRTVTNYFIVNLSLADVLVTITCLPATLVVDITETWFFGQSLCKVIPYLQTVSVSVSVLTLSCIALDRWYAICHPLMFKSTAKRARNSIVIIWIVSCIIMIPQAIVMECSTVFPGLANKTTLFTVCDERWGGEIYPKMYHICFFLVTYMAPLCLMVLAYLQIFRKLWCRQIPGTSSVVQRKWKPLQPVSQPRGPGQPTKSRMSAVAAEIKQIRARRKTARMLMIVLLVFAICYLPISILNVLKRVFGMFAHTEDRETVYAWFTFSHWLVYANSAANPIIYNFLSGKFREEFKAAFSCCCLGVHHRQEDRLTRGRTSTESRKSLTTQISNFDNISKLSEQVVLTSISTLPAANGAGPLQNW

For orientation: IC50 means the concentration that inhibits the measured activity by half. A higher IC50 goes with lower potency. As to `C[C@@H]1CC[C@@H](c2noc(C(C)(C)O)n2)CN1C(=O)c1ccccc1-n1ncnn1` [Example 12, 2-{3-[(3R,6R)-6-methyl-1-{[2-(2H-tetrazol-2-yl)phenyl]carbonyl}piperidin-3-yl]-1,2,4-oxadiazol-5-yl}propan-2-ol], the IC50 in test [1] is > 10 µM; in test [2], 0.184 µM.

In the case of `C[C@@H]1CC[C@@H](c2noc(C(C)(C)O)n2)CN1C(=O)c1ccccc1-c1ncccn1` [Example 23, 2-(3-{(3R,6R)-6-Methyl-1-[(2-pyrimidin-2-ylphenyl)carbonyl]piperidin-3-yl}-1,2,4-oxadiazol-5-yl)propan-2-ol], the IC50 in test [1] is > 10 µM; in test [2], 0.063 µM.

As for `C[C@@H]1CC[C@@H](c2nsc(C(C)(C)O)n2)CN1C(=O)c1ccccc1OC(F)(F)F` [Example 39, 2-{3-[(3R,6R)-6-methyl-1-{[2-(trifluoromethoxy)phenyl]carbonyl}piperidin-3-yl]-1,2,4-thiadiazol-5-yl}propan-2-ol], the IC50 in test [1] was determined as 6.38 µM; in test [2], 0.053 µM.

As for `CC(C)Oc1ncccc1C(=O)N1C[C@H](c2nsc(C(C)(C)O)n2)CC[C@H]1C` [Example 30, 2-{3-[(3R,6R)-6-methyl-1-{[2-(1-methylethoxy)pyridin-3-yl]carbonyl}piperidin-3-yl]-1,2,4-thiadiazol-5-yl}propan-2-ol], the IC50 in test [1] was > 10 µM; in test [2] it was 0.298 µM.

For the molecule `C[C@@H]1CC[C@@H](c2nsc(C(C)(C)O)n2)CN1C(=O)c1ccccc1C1(C#N)CC1` [Example 32, 1-[2-({(2R,5R)-5-[5-(1-hydroxy-1-methylethyl)-1,2,4-thiadiazol-3-yl]-2-methylpiperidin-1-yl}carbonyl)phenyl]cyclopropane-carbonitrile], the IC50 in test [1] turned out to be 2.42 µM; in test [2] it was 0.018 µM.

For the molecule `C[C@@H]1CC[C@@H](c2nsc(C(C)(C)O)n2)CN1C(=O)c1cscc1-c1ncccn1` [Example 42, 2-(3-{(3R,6R)-6-methyl-1-[(4-pyrimidin-2-ylthiophen-3-yl)carbonyl]piperidin-3-yl}-1,2,4-thiadiazol-5-yl)propan-2-ol], the IC50 in test [1] is > 10 µM; in test [2], 0.083 µM.

For `CC(C)c1nc([C@@H]2CC[C@@H](C)N(C(=O)c3ccccc3-n3nccn3)C2)no1` [Example 4, (2R,5R)-2-methyl-5-[5-(1-methylethyl)-1,2,4-oxadiazol-3-yl]-1-{[2-(2H-1,2,3-triazol-2-yl)phenyl]carbonyl}piperidine], the IC50 in test [1] came out at 0.699 µM; in test [2], 0.028 µM.

As to `C[C@@H]1CC[C@@H](c2nsc(C(C)(C)O)n2)CN1C(=O)c1ccccc1CS(C)(=O)=O` [Example 33, 2-{3-[(3R,6R)-6-methyl-1-({2-[(methylsulfonyl)methyl]phenyl}carbonyl)piperidin-3-yl]-1,2,4-thiadiazol-5-l}propan-2-ol], the values for the 50% inhibitory concentration (IC50) in test [1] and in test [2] were > 10 µM and 0.194 µM, respectively.

For `C[C@@H]1CC[C@@H](c2noc(C(C)(C)O)n2)CN1C(=O)c1ccccc1C1(C#N)CC1` [Example 11, 1-[2-({(2R,5R)-5-[5-(1-hydroxy-1-methylethyl)-1,2,4-oxadiazol-3-yl]-2-methylpiperidin-1-yl}carbonyl)phenyl]cyclopropanecarbonitrile], the 50% inhibitory concentration (IC50) in test [1] was 2.29 µM; in test [2], 0.022 µM.

Take `C[C@@H]1CC[C@@H](c2noc(C(C)(C)O)n2)CN1C(=O)c1ccc(F)cc1-n1nccn1` [Example 21, 2-{3-[(3R,6R)-1-{[4-Fluoro-2-(2H-1,2,3-triazol-2-yl)phenyl]carbonyl}-6-methylpiperidin-3-yl]-1,2,4-oxadiazol-5-yl}propan-2-ol]: the half-inhibitory concentration (IC50) in test [1] is > 10 µM; in test [2], 0.044 µM.

In the case of `C[C@@H]1CC[C@@H](c2noc(C3CC3)n2)CN1C(=O)c1ccccc1-n1nccn1` [Example 1, (2R,5R)-5-(5-Cyclopropyl-1,2,4-oxadiazol-3-yl)-2-methyl-1-{[2-(2H-1,2,3-triazol-2-yl)phenyl]carbonyl}piperidine], the half-inhibitory concentration (IC50) in test [1] is > 10 µM; in test [2], 0.329 µM.

As to `COC(C)(C)c1nc([C@@H]2CC[C@@H](C)N(C(=O)c3ccccc3-n3nccn3)C2)no1` [Example 8, (2R,5R)-5-[5-(1-Methoxy-1-methylethyl)-1,2,4-oxadiazol-3-yl]-2-methyl-1-{[2-(2H-1,2,3-triazol-2-yl)phenyl]carbonyl}piperidine], the IC50 in test [1] is 3.7 µM; in test [2], 0.098 µM.

As for `C[C@@H]1CC[C@@H](c2noc(C(C)(C)O)n2)CN1C(=O)c1cccnc1OCC(F)(F)F` [Example 16, 2-{3-[(3R,6R)-6-methyl-1-{[2-(2,2,2-trifluoroethoxy)pyridin-3-yl]carbonyl}piperidin-3-yl]-1,2,4-oxadiazol-5-yl}propan-2-ol], the IC50 in test [1] is > 10 µM; in test [2], 0.087 µM.

Take `C[C@@H]1CC[C@@H](c2noc(C(C)(C)O)n2)CN1C(=O)c1ccsc1-n1nccn1` [Example 13, 2-{3-[(3R,6R)-6-methyl-1-{[2-(2H-1,2,3-triazol-2-yl)thiophen-3-yl]carbonyl}piperidin-3-yl]-1,2,4-oxadiazol-5-yl}propan-2-ol]: the IC50 is > 10 µM in test [1] and 0.039 µM in test [2].

Take `CC(C)Oc1ncccc1C(=O)N1C[C@H](c2noc(C(C)(C)O)n2)CC[C@H]1C` [Example 17, 2-{3-[(3R,6R)-6-methyl-1-{[2-(1-methylethoxy)pyridin-3-yl]carbonyl}piperidin-3-yl]-1,2,4-oxadiazol-5-yl}propan-2-ol]: the IC50 in test [1] is > 10 µM; in test [2], 0.219 µM.

In the case of `C[C@@H]1CC[C@@H](c2noc([C@@](C)(O)C(F)(F)F)n2)CN1C(=O)c1ccccc1-n1nccn1` [Example 10, (2R)-1,1,1-Trifluoro-2-{3-[(3R,6R)-6-methyl-1-{[2-(2H-1,2,3-triazol-2-yl)phenyl]carbonyl}piperidin-3-yl]-1,2,4-oxadiazol-5-yl}propan-2-ol], the IC50 worked out at 2.24 µM in test [1] and 0.097 µM in test [2].

Consider `C[C@@H]1CC[C@@H](c2nc(C3CC3)no2)CN1C(=O)c1ccccc1-n1nccn1` [Example 28, (2R,5R)-5-(3-cyclopropyl-1,2,4-oxadiazol-5-yl)-2-methyl-1-{[2-(2H-1,2,3-triazol-2-yl)phenyl]carbonyl}piperidine], for which the IC50 in test [1] was > 10 µM; in test [2] it was 0.345 µM.

Regarding `COC(=O)c1ccccc1C(=O)N1C[C@H](c2noc(C(C)(C)O)n2)CC[C@H]1C` [Example 20, methyl 2-({(2R,5R)-5-[5-(1-hydroxy-1-methylethyl)-1,2,4-oxadiazol-3-yl]-2-methylpiperidin-1-yl}carbonyl)benzoate], the concentration for half-maximal inhibition (IC50) was > 10 µM in test [1] and 0.097 µM in test [2].

As to `C[C@@H]1CC[C@@H](c2noc(C(C)(C)O)n2)CN1C(=O)c1ccsc1-c1ncccn1` [Example 22, 2-(3-{(3R,6R)-6-methyl-1-[(2-pyrimidin-2-ylthiophen-3-yl)carbonyl]piperidin-3-yl}-1,2,4-oxadiazol-5-yl)propan-2-ol], the IC50 in test [1] was > 10 µM; in test [2], 0.061 µM.

On to `CCOc1ccccc1C(=O)N1C[C@H](c2nsc(C(C)(C)O)n2)CC[C@H]1C` [Example 37, 2-(3-{(3R,6R)-1-[(2-ethoxyphenyl)carbonyl]-6-methylpiperidin-3-yl}-1,2,4-thiadiazol-5-yl)propan-2-ol], for which the results for the IC50 in test [1] and in test [2] were > 10 µM and 0.146 µM, respectively.

Turning to `C[C@@H]1CC[C@@H](c2noc([C@@H](O)C(F)(F)F)n2)CN1C(=O)c1ccccc1-n1nccn1` [Example 9, (1R)-2,2,2-Trifluoro-1-{3-[(3R,6R)-6-methyl-1-{[2-(2H-1,2,3-triazol-2-yl)phenyl]carbonyl}piperidin-3-yl]-1,2,4-oxadiazol-5-yl}ethanol], the IC50 was determined as 1.01 µM in test [1] and 0.077 µM in test [2].
